This note sets out measurements from ChEMBL document CHEMBL1148171, “Flavonoids from Koelreuteria henryi and other sources as protein-tyrosine kinase inhibitors” (J Nat Prod, 1993).

Molecules are shown by their SMILES. Values after ≈ are worked out from the molar mass of the structure shown.

A word on the IC50: it is the concentration needed to halve the response being measured. A lower IC50 goes with greater potency in that assay.

The experiment can be described thus: Inhibition of bovine thymus p56-LCK protein tyrosine kinase activity. Details: species or system Bos taurus.
`Cc1cc(O)c2c(c1)C(=O)c1cc(O)cc(O)c1C2=O` [EMODIN] displayed an IC50 of 10 µg/mL (≈ 37 µM). Then `O=c1c(O[C@H]2OC[C@@H](O)[C@@H](O)[C@@H]2O)c(-c2ccc(O)cc2)oc2cc(O)cc(O)c12`, with 200 µg/mL (≈ 478 µM); and `O=c1c(O)c(-c2ccc(O)cc2)oc2cc(O)cc(O)c12` [KAEMPFEROL], with 8 µg/mL (≈ 27.9 µM). Then `C[C@H]1O[C@H](Oc2c(-c3ccc(O)cc3)oc3cc(O)cc(O)c3c2=O)[C@@H](O)[C@@H](O)[C@@H]1O` [KAEMPFEROL-3-O-RHAMNOSIDE], with 400 µg/mL (≈ 925 µM); and `O=c1c(O)c(-c2ccccc2)oc2cc(O)cc(O)c12` [GALANGIN], with 30 µg/mL (≈ 111 µM). Then `O=c1c(O)c(-c2ccc(O)cc2O)oc2cc(O)cc(O)c12` [MORIN], with 50 µg/mL (≈ 165 µM); and `COc1ccc(-c2oc3cc(O)cc(O)c3c(=O)c2O)cc1` [KAEMPFERIDE], with 30 µg/mL (≈ 99.9 µM); and `O=c1c(O)c(-c2ccc(O)cc2)oc2cc(O)ccc12` [RESOKAEMPFEROL], with 5 µg/mL (≈ 18.5 µM).

`O=c1cc(-c2ccc(O)cc2)oc2cc(O)cc(O)c12` [APIGENIN]: the IC50 came out at 4 µg/mL (≈ 14.8 µM). Then `O=c1c(O)c(-c2ccccc2O)oc2cc(O)cc(O)c12` [DATISCETIN], with 60 µg/mL (≈ 210 µM); and `O=c1c(O)c(-c2ccc(O)c(O)c2)oc2cc(O)cc(O)c12` [QUERCETIN], with 8 µg/mL (≈ 26.5 µM). Then `O=c1c(O)c(-c2cc(O)c(O)c(O)c2)oc2cc(O)cc(O)c12` [MYRICETIN], with 10 µg/mL (≈ 31.4 µM).

As to `O=c1cc(-c2ccc(O)c(O)c2)oc2cc(O)cc(O)c12` [LUTEOLIN], the IC50 was determined as 4 µg/mL (≈ 14 µM).
